Experimental data: patent publication US10226493B2, “Coriolus versicolor extracts, methods of preparation and uses thereof” (priority 2010, dated 2019)

Tested on: herpes simplex virus (HSV)
Test: HSV infection in mice, disease severity by hind-limb paralysis score
Format: in vivo
Conditions: male BALB/c mice, ip once a day; MPUB-EtOH 250 mg/kg, acyclovir 10 mg/kg; versus DMSO-treated controls; FIG. 10
Description: To investigate the antiviral effects of C. versicolor extract in vivo, 3-week-old male BALB/c mice (15 mice per group) were administrated intraperitoneally (ip) with dimethyl sulfoxide (DMSO) (solvent for MPUB-EtOH) or MPUB-EtOH (250 mg/kg) once a day at 24 hr intervals for […].
Briefly, the mice were infected with inoculation of HSV ip at 1×10^5 TCID50/ml at day 0. DMSO, MPUB-EtOH or acyclovir (10 mg/kg) were administrated ip once a day at 24 hr intervals for 5 days starting 1 hr after infection. The mice were inspected daily and the disease severity was measured by hind-limb(s) paralysis based on the following scoring system: 0, no paralysis; 1, obvious difficulty in movement of hind limbs; 2, one hind limb incomplete paralysis; 3, one hind limb complete paralysis; 4, both hind limbs incomplete paralysis; 5, both hind limbs complete paralysis.

Nc1nc2c(ncn2COCCO)c(=O)[nH]1 [acyclovir]
severity of HSV infection (hind-limb paralysis score 0-5): comparable
